Where two headings read alike, the source gives them in different places. Residues, ends and D or L forms follow the SMILES beside them.
Experiments:
[1] = system: NCI-H460; assay: MTT cytotoxicity of ABCG2 substrates with or without a reversal agent, NCI-H460; type: cell-based, human; details: for IC50 / RF (resistant fold) of the anticancer drug alone: no reversal agent; for IC50: mean ± SD, at least three independent experiments in triplicate, read-out: IC50 of the anticancer drug alone; for RF (resistant fold) of the anticancer drug alone: relative to drug alone in NCI-H460
Excerpt: (§1) The drug-selected ABCG2-overexpressing non-small cell lung cancer (NSCLC) cell line NCI-H460/MX20 and its parental NCI-H460 cell line, and the ABCB1 gene-transfected HEK293 cells, HEK293/ABCB1, and its parental empty vector transfected HEK293 cells, HEK293/pcDNA3.1 were provided by Drs. Susan E. Bates and Robert Robey (NIH, MD). The drug-resistant ABCB1 overexpressing human epidermal carcinoma cell line KB-C2 and its parental KB-3-1 cell line were generously provided by Dr. Shin-Ichi Akiyama (Kagoshima University, Kagoshima, Japan). All cell lines were cultured in complete Dulbecco’s modified Eagle’s medium(DMEM) (Hyclone, GE Healthcare Life Sciences, Pittsburgh, PA, USA) with the addition of 10% fetal bovine serum (FBS) and 1% penicillin/streptomycin (Hyclone, GE Healthcare Life Sciences, Pittsburgh, PA, USA). The transfected cell lines were selected in complete medium with addition of 2 mg/mL of Geneticin (Enzo Life Sciences, Farmingdale, NY, USA) for selection, KB-C2 cells were continually treated with complete medium and […], and NCI-H460/MX20 cells were cultured with 20 ng/mL mitoxantrone added to the complete medium. All drug-treated cell lines were recovered for more than 2 weeks without treatment before their use. The culture condition was in a humidified incubator at 37 °C with 5% CO2.
(§2) The final absorbance of each well was measured by Microplate Spectrophotometer (Fisher Sci., Fair Lawn, NJ, USA) at 570 nm.

[2] = system: HEK293/pcDNA3.1; assay: MTT cytotoxicity of ABCB1 substrates with or without a reversal agent, HEK293/pcDNA3.1; type: cell-based; details: no reversal agent; for IC50: mean ± SD, at least three independent experiments in triplicate, read-out: IC50 of the anticancer drug alone; for RF (resistant fold) of the anticancer drug alone: relative to drug alone in HEK293/pcDNA3.1
Excerpt: as §1, §2

[3] = system: KB-3-1; assay: MTT cytotoxicity of ABCB1 substrates with or without a reversal agent, KB-3-1; type: cell-based, human; details: no reversal agent; for IC50: mean ± SD, at least three independent experiments in triplicate, read-out: IC50 of the anticancer drug alone; for RF (resistant fold) of the anticancer drug alone: IC50 relative to drug alone in KB-3-1
Excerpt: as §1, §2

[4] = system: KB-C2; assay: MTT cytotoxicity of ABCB1 substrates with or without a reversal agent, KB-C2; details: for RF (resistant fold) of the anticancer drug alone: IC50 in KB-C2 divided by IC50 in KB-3-1
Excerpt: as §1, §2

[5] = system: NCI-H460/MX20; assay: MTT cytotoxicity of ABCG2 substrates with or without a reversal agent, NCI-H460/MX20; type: cell-based, human; details: for IC50: NCI-H460/MX20, mean ± SD, at least three independent experiments in triplicate, read-out: IC50 of the anticancer drug alone; for IC50 / RF (resistant fold) of the anticancer drug alone: no reversal agent
Excerpt: as §1, §2

[6] = system: ABCB1-overexpressing KB-C2 cells; type: cell-based, human
Protocol: (§3) [^3H]-paclitaxel (31 Ci/mmol, Moravek Biochemicals, Brea, CA, USA) was used to measure the drug accumulation and efflux as previously described. The only difference is that after the cells were seeded evenly in 24-well plate, the cells were incubated in the presence or absence of XH-14C and a parallel positive reversal agent for […]. Liquid scintillation cocktail used to measure the radioactivity was purchased from MP Biomedicals, Inc (St. Ana, CA, USA) and the radioactivity of different groups were read with the Packard TRI-CARB1 190‘A liquid scintillation analyzer. A parallel well of cells for each group was set up for cell number counting at the end of the assay for the purpose of data normalization.

[7] = system: ABCB1 on KB-C2 cells; type: cell-based, human
Protocol: as §3

[8] = system: KB-3-1 cells; assay: [3H]-paclitaxel efflux assay in KB-3-1; type: cell-based, human; details: 2 h, with or without a reversal agent
Protocol: as §3

[9] = biological target: T1, ABCB1 (Homo sapiens, UniProt P08183); details: XH-14C 0–40 μM; vanadate-sensitive; phosphate read at 800 nm; three independent experiments
Protocol: The vanadate-sensitive membrane vesicles ABCB1 and ABCG2 ATPase activity were determined as previously described, and the ABCB1- and ABCG2-overexpressing cell membranes were purchased from BD Biosciences (San Jose, CA, USA). The ATPase activities were calculated based on the measurement of inorganic phosphate (IP)detected using a spectrophotometer at 800 nm.

[10] = system: parental cells (KB-3-1); details: read-out: IC50 of peptide; KB-3-1 (parental); MTT, 570 nm; at least three independent triplicate experiments
Excerpt: as §1, §2

[11] = system: parental cells NCI-H460; details: read-out: IC50 of peptide, MTT, 570 nm, at least three independent experiments in triplicate
Excerpt: as §1, §2

[12] = in vitro; details: human
Excerpt: as §1, §2

[13] = system: HEK293/ABCB1; assay: MTT cytotoxicity of ABCB1 substrates with or without a reversal agent, HEK293/ABCB1; type: cell-based; details: no reversal agent; for IC50: HEK293/ABCB1, mean ± SD, at least three independent experiments in triplicate, read-out: IC50 of the anticancer drug alone; for RF (resistant fold) of the anticancer drug alone: IC50 in HEK293/ABCB1 divided by IC50 in HEK293/pcDNA3.1
Excerpt: as §1, §2

[14] = biological target: T1, ABCB1; design: purchased BD Biosciences (San Jose, CA, USA); method as in PMID 25456855; details: non-competitive inhibitor; cited from earlier work
[15] = KB-C2 cells (ABCB1-overexpressing human epidermal carcinoma)
[16] = NCI-H460/MX20 cells (ABCG2-overexpressing NSCLC)
[17] = Homo sapiens, KB-C2, read-out: IC50 of the anticancer drug alone
[18] = IC50 in NCI-H460/MX20 divided by IC50 in NCI-H460

T1 sequence (P08183 whole entry): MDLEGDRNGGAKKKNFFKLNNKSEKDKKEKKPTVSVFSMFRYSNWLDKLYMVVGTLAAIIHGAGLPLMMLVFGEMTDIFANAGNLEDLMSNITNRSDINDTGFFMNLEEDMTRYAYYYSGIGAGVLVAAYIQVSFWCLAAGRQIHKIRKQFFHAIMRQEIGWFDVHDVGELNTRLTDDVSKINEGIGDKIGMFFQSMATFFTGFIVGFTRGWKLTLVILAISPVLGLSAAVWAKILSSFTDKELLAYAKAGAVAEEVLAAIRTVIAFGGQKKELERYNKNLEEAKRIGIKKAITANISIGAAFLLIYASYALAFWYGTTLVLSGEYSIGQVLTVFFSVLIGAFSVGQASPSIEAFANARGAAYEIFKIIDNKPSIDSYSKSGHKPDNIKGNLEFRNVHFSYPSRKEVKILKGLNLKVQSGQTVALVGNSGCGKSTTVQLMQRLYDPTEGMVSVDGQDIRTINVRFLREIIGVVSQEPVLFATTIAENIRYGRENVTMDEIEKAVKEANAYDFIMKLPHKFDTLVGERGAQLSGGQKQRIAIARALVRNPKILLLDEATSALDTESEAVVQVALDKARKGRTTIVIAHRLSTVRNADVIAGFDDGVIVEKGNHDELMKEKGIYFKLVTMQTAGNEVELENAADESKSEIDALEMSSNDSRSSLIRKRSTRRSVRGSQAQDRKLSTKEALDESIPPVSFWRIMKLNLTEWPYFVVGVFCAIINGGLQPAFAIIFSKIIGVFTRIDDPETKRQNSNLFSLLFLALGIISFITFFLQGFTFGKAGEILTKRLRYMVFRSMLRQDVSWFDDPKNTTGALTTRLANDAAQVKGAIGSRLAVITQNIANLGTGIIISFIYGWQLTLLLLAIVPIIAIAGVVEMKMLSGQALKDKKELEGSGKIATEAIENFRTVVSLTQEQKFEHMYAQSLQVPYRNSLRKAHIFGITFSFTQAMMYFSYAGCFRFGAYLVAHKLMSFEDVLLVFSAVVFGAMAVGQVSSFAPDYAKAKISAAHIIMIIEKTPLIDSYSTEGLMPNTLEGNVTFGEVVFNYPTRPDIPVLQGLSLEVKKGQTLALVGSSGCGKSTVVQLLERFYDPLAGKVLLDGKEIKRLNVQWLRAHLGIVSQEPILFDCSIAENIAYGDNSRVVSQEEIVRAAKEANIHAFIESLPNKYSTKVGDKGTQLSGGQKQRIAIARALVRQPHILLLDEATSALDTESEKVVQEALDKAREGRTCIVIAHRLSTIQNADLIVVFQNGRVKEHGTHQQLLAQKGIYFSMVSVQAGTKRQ

N.N.[Cl][Pt][Cl] [Cisplatin, cisplatin]
IC50 [1]: 2.76 ± 0.23 µM
IC50 [2]: 2.27 ± 0.489 µM
IC50 [3]: 1.64 ± 0.487 µM
IC50 ([4]; read-out: IC50 of the anticancer drug alone, KB-C2, no reversal agent, mean ± SD, at least three independent experiments in triplicate): 1.76 ± 0.377 µM
IC50 [5]: 3.15 ± 0.47 µM

CC(=O)O[C@H]1C(=O)[C@@]2(C)[C@H]([C@H](OC(=O)c3ccccc3)[C@]3(O)C[C@H](OC(=O)[C@H](O)[C@@H](NC(=O)c4ccccc4)c4ccccc4)C(C)=C1C3(C)C)[C@]1(OC(C)=O)CO[C@@H]1C[C@@H]2O [[^3H]-paclitaxel]
intracellular [3H]-paclitaxel in KB-C2, fold lower than in KB-3-1 [6]: more than 100 fold
decrease in intracellular [3H]-paclitaxel (efflux) without XH-14C [7]: about 50%
change of cellular [3H]-paclitaxel in KB-3-1 [8]: did not significantly change

CC[C@H](C)[C@H](NC(=O)[C@H](CCCNC(=N)N)NC(=O)[C@H](CCCCN)NC(=O)[C@@H](NC(=O)[C@@H](N)Cc1ccccc1)[C@@H](C)CC)C(=O)N[C@@H](C)C(=O)N[C@@H](CCCNC(=N)N)C(=O)N[C@@H](CC(C)C)C(=O)N[C@@H](CC(C)C)C(=O)N[C@@H](CCCNC(=N)N)C(=O)N[C@@H](CCCCN)C(=O)N[C@H](C(=O)N[C@@H](Cc1c[nH]c2ccccc12)C(=O)N[C@@H](CCCNC(=N)N)C(=O)O)[C@@H](C)CC [XH-14C] (H-FIKRIARLLRKIWR-OH)
maximal stimulation of ABCB1 ATPase activity [9]: 3.28 fold
IC50 [10]: 8.12 µM
IC50 [11]: 9.07 µM
effect on cytotoxicity of cisplatin ([4]; non-substrate of ABCB1, all tested cell lines): no effect on the cytotoxicity of cisplatin
IC50 [12, 15]: 7.82 µM
IC50 [12, 16]: 8.3 µM

COc1ccc2c3c([nH]c2c1)[C@H](CC(C)C)N1C(=O)[C@H](CCC(=O)OC(C)(C)C)NC(=O)[C@@H]1C3 [Ko143]
RF of cisplatin in combination with reversal agent ([1]; cisplatin + reversal agent 3 μM, relative to NCI-H460): 1.26
RF of mitoxantrone in combination with reversal agent ([1]; mitoxantrone + reversal agent 3 μM, relative to NCI-H460): 1.10
RF of topotecan in combination with reversal agent ([1]; topotecan + reversal agent 3 μM, relative to NCI-H460): 0.76
RF of cisplatin in combination with reversal agent ([5]; cisplatin + reversal agent 3 μM, IC50 in NCI-H460/MX20 divided by IC50 in NCI-H460): 1.23
RF of mitoxantrone in combination with reversal agent ([5]; mitoxantrone + reversal agent 3 μM, IC50 in NCI-H460/MX20 divided by IC50 in NCI-H460): 2.28
RF of topotecan in combination with reversal agent ([5]; topotecan + reversal agent 3 μM, IC50 in NCI-H460/MX20 divided by IC50 in NCI-H460): 1.96

CC(=O)O[C@H]1C(=O)[C@@]2(C)[C@H]([C@H](OC(=O)c3ccccc3)[C@]3(O)C[C@H](OC(=O)[C@H](O)[C@@H](NC(=O)c4ccccc4)c4ccccc4)C(C)=C1C3(C)C)[C@]1(OC(C)=O)CO[C@@H]1C[C@@H]2O [Paclitaxel, paclitaxel]
IC50 ([2]; Homo sapiens): 0.0143 ± 0.00153 µM
RF (resistant fold) of the anticancer drug alone [2]: 1.00
IC50 [13]: 0.306 ± 0.0454 µM
RF (resistant fold) of the anticancer drug alone [13]: 21.38
IC50 ([3]; Homo sapiens): 0.003 ± 0.0005 µM
RF (resistant fold) of the anticancer drug alone [3]: 1.00
IC50 [4, 17]: 1.31 ± 0.271 µM
RF (resistant fold) of the anticancer drug alone ([4]; no reversal agent): 437

CC[C@@]1(O)C(=O)OCc2c1cc1n(c2=O)Cc2cc3c(CN(C)C)c(O)ccc3nc2-1 [Topotecan, topotecan]
IC50 ([1]; Homo sapiens): 0.049 ± 0.006 µM
RF (resistant fold) of the anticancer drug alone [1]: 1.00
IC50 ([5]; Homo sapiens): 39.2 ± 4.85 µM
RF (resistant fold) of the anticancer drug alone [5, 18]: 799

COc1cc2c(cc1OC)CN(CCc1ccc(NC(=O)c3cc(OC)c(OC)cc3NC(=O)c3cnc4ccccc4c3)cc1)CC2 [tariquidar]
ABCB1 ATPase stimulation [14]: able to stimulate ABCB1 ATPase activity

CC[C@H](C)[C@H](NC(=O)[C@H](CCCNC(=N)N)NC(=O)[C@H](CCCCN)NC(=O)[C@@H](NC(=O)[C@@H](N)Cc1ccccc1)[C@@H](C)CC)C(=O)N[C@@H](C)C(=O)N[C@@H](CCCNC(=N)N)C(=O)N[C@@H](CC(C)C)C(=O)N[C@@H](CC(C)C)C(=O)N[C@@H](CCCNC(=N)N)C(=O)N[C@@H](CCCCN)C(=O)N[C@H](C(=O)N[C@@H](CCCCN)C(=O)N[C@@H](CCCNC(=N)N)C(=O)O)[C@@H](C)CC [XH-14A] (H-FIKRIARLLRKIKR-OH)
IC50 [10]: 8.73 µM
IC50 [11]: 10.1 µM
IC50 [12, 15]: 22.4 µM
IC50 [12, 16]: 8.22 µM

CC[C@H](C)[C@H](NC(=O)[C@H](CCCNC(=N)N)NC(=O)[C@H](CCCCN)NC(=O)[C@@H](NC(=O)[C@@H](N)Cc1ccccc1)[C@@H](C)CC)C(=O)N[C@@H](C)C(=O)N[C@@H](CCCNC(=N)N)C(=O)N[C@@H](CC(C)C)C(=O)N[C@@H](CC(C)C)C(=O)N[C@@H](CCCNC(=N)N)C(=O)N[C@@H](CCCCN)C(=O)N[C@H](C(=O)N[C@@H](Cc1ccccc1)C(=O)N[C@@H](CCCNC(=N)N)C(=O)O)[C@@H](C)CC [XH-14B] (H-FIKRIARLLRKIFR-OH)
IC50 [10]: 10 µM
IC50 [11]: 9.37 µM
IC50 [12, 15]: 8.38 µM
IC50 [12, 16]: 7.28 µM

COc1cccc2c1C(=O)c1c(O)c3c(c(O)c1C2=O)C[C@@](O)(C(=O)CO)C[C@@H]3O[C@H]1C[C@H](N)[C@H](O)[C@H](C)O1 [Doxorubicin, doxorubicin]
IC50 ([2]; Homo sapiens): 1.226 ± 0.00188 µM
RF (resistant fold) of the anticancer drug alone [2]: 1.00
IC50 [13]: 32.6 ± 4.81 µM
RF (resistant fold) of the anticancer drug alone [13]: 26.6
IC50 ([3]; Homo sapiens): 1.28 ± 0.189 µM
RF (resistant fold) of the anticancer drug alone [3]: 1.00
IC50 [4, 17]: 67.6 ± 2.46 µM
RF (resistant fold) of the anticancer drug alone ([4]; no reversal agent): 53.0

O=C1c2c(O)ccc(O)c2C(=O)c2c(NCCNCCO)ccc(NCCNCCO)c21 [Mitoxantrone, mitoxantrone]
IC50 ([1]; Homo sapiens): 0.039 ± 0.005 µM
RF (resistant fold) of the anticancer drug alone [1]: 1.00
IC50 ([5]; Homo sapiens): 36.6 ± 4.53 µM
RF (resistant fold) of the anticancer drug alone [5, 18]: 937

Source: publication PMC7409168, “The Multidrug Resistance-Reversing Activity of a Novel Antimicrobial Peptide” (Cancers, 2020)
